Values quoted from earlier work in patent publication US11019825B2, “Product” (priority 2015, dated 2021).

Experiments:
canola seedlings = settings: low concentrations

Substance: Harzianic acid
- antibiotic activity in vitro (Pythium irregulare): antibiotic activity
- antibiotic activity in vitro (Sclerotinia sclerotiorum): antibiotic activity
- antibiotic activity in vitro (Rhizoctonia solani): antibiotic activity
- plant growth promotion effect (canola seedlings): plant growth promotion effect
